Reference: publication PMC10600239, “Selective MCL-1 inhibitor ABBV-467 is efficacious in tumor models but is associated with cardiac troponin increases in patients” (Communications Medicine, 2023)

Legend:
Experiment in all cases: Off-target profiling (Supplementary Data 1)
[1] = target: off-target receptors, ion channels, and transporters (Homo sapiens, UniProt P30542)
[2] = target: off-target receptors, ion channels, and transporters (Homo sapiens, UniProt Q06187); settings: TR-FRET Kinome; Invitrogen A-1167389.7 .2(Subs Conc)
[3] = target: off-target receptors, ion channels, and transporters (Homo sapiens, UniProt Q9UQM7); settings: TR-FRET Kinome; Invitrogen A-1169612.6 .003(Subs Conc)
[4] = target: off-target receptors, ion channels, and transporters (Homo sapiens, UniProt O00141); settings: TR-FRET Kinome; Millipore A-1213250.2 .03(Subs Conc)
[5] = target: off-target receptors, ion channels, and transporters (Homo sapiens, UniProt Q9UL54); settings: TR-FRET Kinome; Invitrogen A-1169612.6 .2(Subs Conc)
[6] = target: off-target receptors, ion channels, and transporters (Homo sapiens, UniProt P43403); settings: TR-FRET Kinome; SignalChem A-1167389.7 .015(Subs Conc)
[7] = target: off-target receptors, ion channels, and transporters (Homo sapiens, UniProt P04150); settings: CEREP
[8] = target: off-target receptors, ion channels, and transporters (Homo sapiens, UniProt P30291); settings: TR-FRET Kinome; Carna Biosciences A-1248830.7 .015(Subs Conc)
Chain of off-target receptors, ion channels, and transporters (Homo sapiens, UniProt P30291) (P30291 whole entry): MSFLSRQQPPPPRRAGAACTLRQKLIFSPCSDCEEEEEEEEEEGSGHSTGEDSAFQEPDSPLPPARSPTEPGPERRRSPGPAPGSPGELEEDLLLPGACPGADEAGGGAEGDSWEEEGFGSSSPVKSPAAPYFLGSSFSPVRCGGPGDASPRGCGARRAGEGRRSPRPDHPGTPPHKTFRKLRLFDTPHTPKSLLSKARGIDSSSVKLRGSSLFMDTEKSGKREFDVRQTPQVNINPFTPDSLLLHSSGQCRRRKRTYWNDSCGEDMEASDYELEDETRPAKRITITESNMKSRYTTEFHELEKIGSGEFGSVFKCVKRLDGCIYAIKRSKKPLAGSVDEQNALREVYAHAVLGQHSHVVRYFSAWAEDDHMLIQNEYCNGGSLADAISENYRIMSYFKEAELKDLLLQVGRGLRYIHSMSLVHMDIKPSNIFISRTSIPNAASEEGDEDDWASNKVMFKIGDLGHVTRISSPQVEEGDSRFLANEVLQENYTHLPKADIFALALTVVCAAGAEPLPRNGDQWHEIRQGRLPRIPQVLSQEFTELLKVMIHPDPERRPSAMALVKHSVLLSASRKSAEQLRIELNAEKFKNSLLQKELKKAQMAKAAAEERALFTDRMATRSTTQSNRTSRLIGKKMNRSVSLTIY

[9] = target: off-target receptors, ion channels, and transporters (Homo sapiens, UniProt Q13043); settings: TR-FRET Kinome; Invitrogen A-1167389.7 .025(Subs Conc)
Chain of off-target receptors, ion channels, and transporters (Homo sapiens, UniProt Q13043) (Q13043 whole entry): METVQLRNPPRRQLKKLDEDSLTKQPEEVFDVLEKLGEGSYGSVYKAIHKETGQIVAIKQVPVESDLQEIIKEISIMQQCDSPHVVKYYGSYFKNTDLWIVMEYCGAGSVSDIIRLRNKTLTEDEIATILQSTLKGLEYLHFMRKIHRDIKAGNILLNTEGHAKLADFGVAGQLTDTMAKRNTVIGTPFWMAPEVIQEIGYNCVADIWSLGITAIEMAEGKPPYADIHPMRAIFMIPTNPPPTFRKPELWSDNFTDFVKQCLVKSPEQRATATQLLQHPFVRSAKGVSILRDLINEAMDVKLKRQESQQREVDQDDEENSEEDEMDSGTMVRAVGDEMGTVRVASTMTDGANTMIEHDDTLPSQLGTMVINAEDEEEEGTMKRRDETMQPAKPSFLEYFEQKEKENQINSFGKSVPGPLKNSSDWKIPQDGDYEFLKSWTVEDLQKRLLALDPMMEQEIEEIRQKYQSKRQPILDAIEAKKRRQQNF

[10] = target: off-target receptors, ion channels, and transporters (Homo sapiens, UniProt P14416)
Chain of off-target receptors, ion channels, and transporters (Homo sapiens, UniProt P14416) (P14416 whole entry): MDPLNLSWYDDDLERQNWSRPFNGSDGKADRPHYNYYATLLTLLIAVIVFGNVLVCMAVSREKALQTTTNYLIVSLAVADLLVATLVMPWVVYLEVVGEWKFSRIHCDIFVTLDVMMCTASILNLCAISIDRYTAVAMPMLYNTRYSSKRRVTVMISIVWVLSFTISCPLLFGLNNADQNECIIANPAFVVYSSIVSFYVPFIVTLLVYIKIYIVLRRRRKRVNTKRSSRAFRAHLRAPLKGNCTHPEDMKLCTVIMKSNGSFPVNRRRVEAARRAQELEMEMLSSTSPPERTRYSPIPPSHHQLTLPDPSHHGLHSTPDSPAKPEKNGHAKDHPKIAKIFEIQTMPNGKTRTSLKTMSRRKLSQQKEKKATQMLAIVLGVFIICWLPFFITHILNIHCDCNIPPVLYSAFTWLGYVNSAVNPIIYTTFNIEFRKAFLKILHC

[11] = target: off-target receptors, ion channels, and transporters (Homo sapiens, UniProt Q06418); settings: TR-FRET Kinome; Invitrogen A-1169612.6 .05(Subs Conc)
[12] = target: off-target receptors, ion channels, and transporters (Homo sapiens, UniProt P57059); settings: TR-FRET Kinome; Invitrogen A-1167389.7 .005(Subs Conc)
[13] = target: off-target receptors, ion channels, and transporters (Homo sapiens, UniProt P29376); settings: TR-FRET Kinome; Invitrogen A-1224615.7 .0125(Subs Conc)
[14] = target: off-target receptors, ion channels, and transporters (Homo sapiens, UniProt P28482); settings: TR-FRET Kinome; Invitrogen A-1224127.6 .05(Subs Conc)
[15] = target: off-target receptors, ion channels, and transporters (Homo sapiens, UniProt P08172)
Chain of off-target receptors, ion channels, and transporters (Homo sapiens, UniProt P08172) (P08172 whole entry): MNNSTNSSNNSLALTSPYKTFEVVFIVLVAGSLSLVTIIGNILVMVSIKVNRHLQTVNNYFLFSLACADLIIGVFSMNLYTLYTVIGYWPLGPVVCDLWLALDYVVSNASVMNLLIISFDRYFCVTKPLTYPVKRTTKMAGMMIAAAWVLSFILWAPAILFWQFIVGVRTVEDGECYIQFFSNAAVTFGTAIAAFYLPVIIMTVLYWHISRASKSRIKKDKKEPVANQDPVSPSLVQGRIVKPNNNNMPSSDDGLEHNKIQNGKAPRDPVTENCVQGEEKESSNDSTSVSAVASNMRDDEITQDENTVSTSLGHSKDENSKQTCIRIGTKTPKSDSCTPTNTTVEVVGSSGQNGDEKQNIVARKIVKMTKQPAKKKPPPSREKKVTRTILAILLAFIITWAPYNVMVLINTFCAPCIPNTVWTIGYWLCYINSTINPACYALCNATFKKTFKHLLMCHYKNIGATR

[16] = target: off-target receptors, ion channels, and transporters (Homo sapiens, UniProt O43353); settings: TR-FRET Kinome; Millipore A-1499319.7 .1(Subs Conc)
[17] = target: off-target receptors, ion channels, and transporters (Homo sapiens, UniProt O95819); settings: TR-FRET Kinome; Invitrogen A-1180691.2 .1(Subs Conc)
[18] = target: off-target receptors, ion channels, and transporters (Homo sapiens, UniProt P49760); settings: TR-FRET Kinome; Invitrogen A-1180691.2 .05(Subs Conc)
[19] = target: off-target receptors, ion channels, and transporters (Homo sapiens, UniProt Q9UM73); settings: TR-FRET Kinome; Millipore A-1167389.7 .05(Subs Conc)
[20] = target: off-target receptors, ion channels, and transporters (Homo sapiens, UniProt Q16288); settings: TR-FRET Kinome; Invitrogen A-1202211.2 .025(Subs Conc)
Chain of off-target receptors, ion channels, and transporters (Homo sapiens, UniProt Q16288) (Q16288 32-839): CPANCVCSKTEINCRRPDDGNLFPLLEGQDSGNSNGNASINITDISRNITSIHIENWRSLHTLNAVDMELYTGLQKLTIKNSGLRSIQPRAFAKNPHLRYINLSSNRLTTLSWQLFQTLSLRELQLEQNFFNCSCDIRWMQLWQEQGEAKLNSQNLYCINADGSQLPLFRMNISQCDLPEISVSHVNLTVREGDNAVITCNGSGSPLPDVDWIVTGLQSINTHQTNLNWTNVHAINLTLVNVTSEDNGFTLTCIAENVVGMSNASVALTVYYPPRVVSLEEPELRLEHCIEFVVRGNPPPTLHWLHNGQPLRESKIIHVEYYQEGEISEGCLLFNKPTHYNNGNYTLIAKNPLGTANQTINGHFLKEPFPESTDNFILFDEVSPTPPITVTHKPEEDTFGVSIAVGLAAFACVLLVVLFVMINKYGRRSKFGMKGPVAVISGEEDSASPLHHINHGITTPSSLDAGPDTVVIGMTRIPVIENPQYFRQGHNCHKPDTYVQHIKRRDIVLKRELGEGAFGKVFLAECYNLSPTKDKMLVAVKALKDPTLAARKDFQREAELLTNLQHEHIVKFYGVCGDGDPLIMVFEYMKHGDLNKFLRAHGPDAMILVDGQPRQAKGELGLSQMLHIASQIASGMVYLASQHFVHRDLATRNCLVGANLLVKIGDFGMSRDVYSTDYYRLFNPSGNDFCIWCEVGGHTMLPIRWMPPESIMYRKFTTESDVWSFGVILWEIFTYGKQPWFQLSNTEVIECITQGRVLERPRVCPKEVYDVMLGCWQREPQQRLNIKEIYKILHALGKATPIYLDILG

[21] = target: off-target receptors, ion channels, and transporters (Homo sapiens, UniProt P30411)
Chain of off-target receptors, ion channels, and transporters (Homo sapiens, UniProt P30411) (P30411 whole entry): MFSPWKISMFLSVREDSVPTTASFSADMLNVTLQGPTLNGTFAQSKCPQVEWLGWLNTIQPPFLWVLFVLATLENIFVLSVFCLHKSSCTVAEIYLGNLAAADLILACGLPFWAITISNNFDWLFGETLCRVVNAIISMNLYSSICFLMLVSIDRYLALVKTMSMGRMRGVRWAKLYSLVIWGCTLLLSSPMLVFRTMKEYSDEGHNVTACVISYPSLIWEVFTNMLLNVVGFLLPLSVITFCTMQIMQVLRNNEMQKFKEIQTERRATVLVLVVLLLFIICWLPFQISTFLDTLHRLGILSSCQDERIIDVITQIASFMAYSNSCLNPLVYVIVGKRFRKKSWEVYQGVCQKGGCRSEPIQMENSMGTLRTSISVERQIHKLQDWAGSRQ

[22] = target: off-target receptors, ion channels, and transporters (Homo sapiens, UniProt P08588)
Chain of off-target receptors, ion channels, and transporters (Homo sapiens, UniProt P08588) (P08588 whole entry): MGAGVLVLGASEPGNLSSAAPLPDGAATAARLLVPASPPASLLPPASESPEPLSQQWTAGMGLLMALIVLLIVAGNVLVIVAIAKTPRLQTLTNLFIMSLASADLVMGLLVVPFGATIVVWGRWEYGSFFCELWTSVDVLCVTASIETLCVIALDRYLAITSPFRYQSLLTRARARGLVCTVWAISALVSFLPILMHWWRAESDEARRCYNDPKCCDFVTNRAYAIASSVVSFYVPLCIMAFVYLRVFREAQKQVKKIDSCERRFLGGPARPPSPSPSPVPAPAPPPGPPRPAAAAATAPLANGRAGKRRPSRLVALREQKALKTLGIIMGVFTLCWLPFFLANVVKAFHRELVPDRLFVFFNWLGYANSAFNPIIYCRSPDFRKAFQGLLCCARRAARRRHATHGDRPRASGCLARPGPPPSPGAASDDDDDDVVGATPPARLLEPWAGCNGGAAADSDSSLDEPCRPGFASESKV

[23] = target: off-target receptors, ion channels, and transporters (Homo sapiens, UniProt Q9UKP6); settings: CEREP
Chain of off-target receptors, ion channels, and transporters (Homo sapiens, UniProt Q9UKP6) (Q9UKP6 whole entry): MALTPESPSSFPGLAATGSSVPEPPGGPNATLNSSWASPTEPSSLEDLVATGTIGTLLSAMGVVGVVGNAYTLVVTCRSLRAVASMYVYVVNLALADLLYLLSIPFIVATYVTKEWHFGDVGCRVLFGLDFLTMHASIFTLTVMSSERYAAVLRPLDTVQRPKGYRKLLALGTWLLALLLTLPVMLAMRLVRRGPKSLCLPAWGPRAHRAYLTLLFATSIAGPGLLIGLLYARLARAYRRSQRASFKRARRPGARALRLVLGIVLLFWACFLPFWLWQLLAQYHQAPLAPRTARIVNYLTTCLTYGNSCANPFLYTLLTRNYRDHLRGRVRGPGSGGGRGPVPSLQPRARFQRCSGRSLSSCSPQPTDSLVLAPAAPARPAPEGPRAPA

[24] = target: off-target receptors, ion channels, and transporters (Homo sapiens, UniProt O60674); settings: TR-FRET Kinome; Invitrogen A-1167389.7 .006(Subs Conc)
[25] = target: off-target receptors, ion channels, and transporters (Homo sapiens, UniProt O15530); settings: TR-FRET Kinome; Invitrogen A-1167389.7 .015(Subs Conc)
Chain of off-target receptors, ion channels, and transporters (Homo sapiens, UniProt O15530) (O15530 whole entry): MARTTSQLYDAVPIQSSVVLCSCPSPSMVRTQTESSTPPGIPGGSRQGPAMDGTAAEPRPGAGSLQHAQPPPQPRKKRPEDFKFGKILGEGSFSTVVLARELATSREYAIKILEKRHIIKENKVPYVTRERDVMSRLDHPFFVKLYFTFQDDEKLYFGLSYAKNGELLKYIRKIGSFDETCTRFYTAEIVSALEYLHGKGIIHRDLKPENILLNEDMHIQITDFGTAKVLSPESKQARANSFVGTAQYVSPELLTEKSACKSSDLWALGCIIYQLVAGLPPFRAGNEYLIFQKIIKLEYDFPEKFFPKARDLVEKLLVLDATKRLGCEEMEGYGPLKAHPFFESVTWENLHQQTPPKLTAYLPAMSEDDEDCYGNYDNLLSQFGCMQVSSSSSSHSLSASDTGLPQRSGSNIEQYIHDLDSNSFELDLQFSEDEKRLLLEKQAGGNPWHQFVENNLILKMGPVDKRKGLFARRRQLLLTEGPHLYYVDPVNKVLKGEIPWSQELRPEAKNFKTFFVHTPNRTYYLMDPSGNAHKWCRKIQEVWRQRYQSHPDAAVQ

Chain of off-target receptors, ion channels, and transporters (Homo sapiens, UniProt P30542) (P30542 whole entry): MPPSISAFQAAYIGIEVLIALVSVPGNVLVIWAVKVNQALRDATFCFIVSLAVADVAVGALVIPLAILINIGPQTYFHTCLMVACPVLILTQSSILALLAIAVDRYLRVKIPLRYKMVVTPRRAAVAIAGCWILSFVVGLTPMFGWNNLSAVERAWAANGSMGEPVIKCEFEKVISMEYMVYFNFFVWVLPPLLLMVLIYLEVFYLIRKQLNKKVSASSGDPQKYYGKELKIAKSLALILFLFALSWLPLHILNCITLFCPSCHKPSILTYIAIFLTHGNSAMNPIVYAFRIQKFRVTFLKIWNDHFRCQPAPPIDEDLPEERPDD

## Cc1c(Cl)c2c(Cl)c(C)c1-c1c(-c3ccc(F)cc3)sc3ncnc(c13)O[C@@H](C(=O)O)Cc1cc(ccc1OCc1ccnc(-c3ccc(OC[C@H]4COCCO4)cc3)n1)OC[C@@H](CN1CCN(C)CC1)O2 [ABBV-467]
[1]; Bioprofiling 6pt Ag
  A1 CHO Human - EC50: > 10 µM
[1]; Bioprofiling 6pt Antag, N6-Cyclopentyladenosine (CPA)
  A1 CHO Human - IC50: > 10 µM
[2]
  BTK - IC50: > 10 µM
[3]
  CAMK2A - IC50: > 10 µM
[4]
  SGK1 - IC50: > 10 µM
[5]
  TAOK2 - IC50: > 10 µM
[6]
  Zap70 - IC50: > 10 µM
[7]
  Glucocorticoid Human Agonist Ligand (Binding Assay) - IC50: 1 µM
[8]
  Wee1 - IC50: > 10 µM
[9]
  MST1 - IC50: > 10 µM
[10]; Bioprofiling 6pt Ag
  D2L CHO Human - EC50: > 10 µM
[10]; Bioprofiling 6pt Antag, Quinpirole
  D2L CHO Human - IC50: > 10 µM
[11]
  TYRO3 - IC50: > 10 µM
[12]
  SIK1 - IC50: > 10 µM
[13]
  LTK - IC50: > 10 µM
[14]
  Erk2 - IC50: > 10 µM
[15]; Bioprofiling 6pt Ag
  M2 CHO Human - EC50: > 10 µM
[15]; Bioprofiling 6pt Antag, Carbachol
  M2 CHO Human - IC50: > 10 µM
[16]
  RIPK2 - IC50: > 10 µM
[17]
  MAP4K4 - IC50: > 10 µM
[18]
  CLK2 - IC50: > 10 µM
[19]
  ALK - IC50: > 10 µM
[20]
  TrkC - IC50: > 10 µM
  TrkC - Ki: >4.65 µM
[21]; Bioprofiling 6pt Ag
  B2 CHO Human - EC50: > 10 µM
[21]; Bioprofiling 6pt Antag, Bradykinin
  B2 CHO Human - IC50: >10.00 µM
[22]; Bioprofiling 6pt Ag
  Beta1 CHO Human - EC50: > 10 µM
[22]; Bioprofiling 6pt Antag, Norepinephrine
  Beta1 CHO Human - IC50: > 10 µM
[23]; read-out: Urotensin-II (UT1) Human (Functional - Agonist Effect) - EC50
  EC50: > 30 µM
[23]; read-out: Urotensin-II (UT1) Human (Functional - Antagonist Effect) - IC50
  IC50: > 30 µM
[24]
  JAK2 - IC50: > 10 µM
[25]
  PDK1 - IC50: > 10 µM
